# In ChEMBL document CHEMBL3885861, “Open TG-GATES”:
# Organism: Rattus norvegicus
# Assay: Open TG-GATES - Regimen: Daily Repeat
# Assay type: toxicity, organism-based, Sprague-Dawley
# Parameters: regimen Daily Repeat, gender Male, age 6 weeks
# Settings: in vivo, po, 0 mg/kg, route gavage, dose level Control; for APTT / Bas / Eos / Fbg / Hb / Ht / Lym / MCH / MCHC / MCV / Mono / Neu / PT / Plat / RBC / Ret / WBC: tissue Blood; for KIDNEY_L / KIDNEY_R / KIDNEY_TOTAL: tissue Kidney; for LIVER: tissue Liver; for A/G / ALP / ALT / AST / BUN / CRE / Ca / Cl / DBIL / GLC / IP / K / LDH / Na / PL / RALB / TBIL / TC / TG / TP / gamma-GTP: tissue Plasma
structure (smiles),measurement,setting,value
CCOC(=O)C(C)(C)Oc1ccc(Cl)cc1 [CLOFIBRATE],TERMINAL_BW,"72 h, time 3 day",239.8 g
same,APTT,"72 h, time 3 day",20.7 s
same,Bas,"72 h, time 3 day",0%
same,Eos,"72 h, time 3 day",1%
same,Fbg,"72 h, time 3 day",221 mg/dL
same,Hb,"72 h, time 3 day",13.8 g/dL
same,Ht,"72 h, time 3 day",39.5%
same,Lym,"72 h, time 3 day",75%
same,MCH,"72 h, time 3 day",21.3 pg
same,MCHC,"72 h, time 3 day",34.9%
same,MCV,"72 h, time 3 day",61.1 fL
same,Mono,"72 h, time 3 day",3.2%
same,Neu,"72 h, time 3 day",20.2%
same,PT,"72 h, time 3 day",12.2 s
same,Plat,"72 h, time 3 day",124.2 x10_4/uL
same,RBC,"72 h, time 3 day",646.2 x10_4/ul
same,Ret,"72 h, time 3 day",5.4%
same,WBC,"72 h, time 3 day",98 x10_2/uL
same,KIDNEY_L,"72 h, time 3 day",1 g
same,KIDNEY_R,"72 h, time 3 day",1.1 g
same,KIDNEY_TOTAL,"72 h, time 3 day",2.1 g
same,LIVER,"72 h, time 3 day",12 g
same,A/G,"72 h, time 3 day",1.6
same,ALP,"72 h, time 3 day",881.8 IU/L
same,ALT,"72 h, time 3 day",37.4 IU/L
same,AST,"72 h, time 3 day",68 IU/L
same,BUN,"72 h, time 3 day",14 mg/dL
same,CRE,"72 h, time 3 day",0.4 mg/dL
same,Ca,"72 h, time 3 day",11.1 mg/dL
same,Cl,"72 h, time 3 day",102 meq/L
same,DBIL,"72 h, time 3 day",0.088 mg/dL
same,GLC,"72 h, time 3 day",194.2 mg/dL
same,IP,"72 h, time 3 day",7 mg/dL
same,K,"72 h, time 3 day",4.1 meq/L
same,LDH,"72 h, time 3 day",230.6 IU/L
same,Na,"72 h, time 3 day",140.6 meq/L
same,PL,"72 h, time 3 day",162.4 mg/dL
same,RALB,"72 h, time 3 day",3.5 g/dL
same,TBIL,"72 h, time 3 day",0.1 mg/dL
same,TC,"72 h, time 3 day",78 mg/dL
same,TG,"72 h, time 3 day",137.2 mg/dL
same,TP,"72 h, time 3 day",5.6 g/dL
same,gamma-GTP,"72 h, time 3 day",1.2 IU/L
same,TERMINAL_BW,"[…], time 7 day",268.6 g
same,TERMINAL_BW,"[…], time 14 day",332 g
same,TERMINAL_BW,"[…], time 28 day",392.8 g
same,APTT,"[…], time 7 day",20.7 s
same,Bas,"[…], time 7 day",0%
same,Eos,"[…], time 7 day",0.8%
same,Fbg,"[…], time 7 day",238 mg/dL
same,Hb,"[…], time 7 day",14.4 g/dL
same,Ht,"[…], time 7 day",41%
same,Lym,"[…], time 7 day",81.6%
same,MCH,"[…], time 7 day",21.4 pg
same,MCHC,"[…], time 7 day",35.2%
same,MCV,"[…], time 7 day",60.8 fL
same,Mono,"[…], time 7 day",2.6%
same,Neu,"[…], time 7 day",14.6%
same,PT,"[…], time 7 day",11.8 s
same,Plat,"[…], time 7 day",118.2 x10_4/uL
same,RBC,"[…], time 7 day",675.8 x10_4/ul
same,Ret,"[…], time 7 day",5.1%
same,WBC,"[…], time 7 day",104.1 x10_2/uL
same,APTT,"[…], time 14 day",19 s
same,Bas,"[…], time 14 day",0%
same,Eos,"[…], time 14 day",0.8%
same,Fbg,"[…], time 14 day",227.2 mg/dL
same,Hb,"[…], time 14 day",14.3 g/dL
same,Ht,"[…], time 14 day",41.2%
same,Lym,"[…], time 14 day",80.4%
same,MCH,"[…], time 14 day",20.3 pg
same,MCHC,"[…], time 14 day",34.6%
same,MCV,"[…], time 14 day",58.5 fL
same,Mono,"[…], time 14 day",3%
same,Neu,"[…], time 14 day",15%
same,PT,"[…], time 14 day",12.3 s
same,Plat,"[…], time 14 day",118.5 x10_4/uL
same,RBC,"[…], time 14 day",704.8 x10_4/ul
same,Ret,"[…], time 14 day",4.4%
same,WBC,"[…], time 14 day",137.8 x10_2/uL
same,APTT,"[…], time 28 day",21.1 s
same,Bas,"[…], time 28 day",0%
same,Eos,"[…], time 28 day",1%
same,Fbg,"[…], time 28 day",219.4 mg/dL
same,Hb,"[…], time 28 day",15.2 g/dL
same,Ht,"[…], time 28 day",43.2%
same,Lym,"[…], time 28 day",81.4%
same,MCH,"[…], time 28 day",19.3 pg
same,MCHC,"[…], time 28 day",35.3%
same,MCV,"[…], time 28 day",54.9 fL
same,Mono,"[…], time 28 day",2.6%
same,Neu,"[…], time 28 day",14.4%
same,PT,"[…], time 28 day",12 s
same,Plat,"[…], time 28 day",119.8 x10_4/uL
same,RBC,"[…], time 28 day",786.6 x10_4/ul
same,Ret,"[…], time 28 day",2.1%
same,WBC,"[…], time 28 day",108.2 x10_2/uL
same,KIDNEY_L,"[…], time 7 day",1.1 g
same,KIDNEY_R,"[…], time 7 day",1.1 g
same,KIDNEY_TOTAL,"[…], time 7 day",2.2 g
same,KIDNEY_L,"[…], time 14 day",1.3 g
same,KIDNEY_R,"[…], time 14 day",1.3 g
same,KIDNEY_TOTAL,"[…], time 14 day",2.6 g
same,KIDNEY_L,"[…], time 28 day",1.4 g
same,KIDNEY_R,"[…], time 28 day",1.4 g
same,KIDNEY_TOTAL,"[…], time 28 day",2.8 g
same,LIVER,"[…], time 7 day",12.5 g
same,LIVER,"[…], time 14 day",14.9 g
same,LIVER,"[…], time 28 day",16 g
same,A/G,"[…], time 7 day",1.6
same,ALP,"[…], time 7 day",994.8 IU/L
same,ALT,"[…], time 7 day",33.8 IU/L
same,AST,"[…], time 7 day",64.6 IU/L
same,BUN,"[…], time 7 day",16.6 mg/dL
same,CRE,"[…], time 7 day",0.4 mg/dL
same,Ca,"[…], time 7 day",10.5 mg/dL
same,Cl,"[…], time 7 day",102.2 meq/L
same,DBIL,"[…], time 7 day",0.098 mg/dL
same,GLC,"[…], time 7 day",213.2 mg/dL
same,IP,"[…], time 7 day",7.2 mg/dL
same,K,"[…], time 7 day",3.8 meq/L
same,LDH,"[…], time 7 day",192.2 IU/L
same,Na,"[…], time 7 day",138.8 meq/L
same,PL,"[…], time 7 day",144.8 mg/dL
same,RALB,"[…], time 7 day",3.6 g/dL
same,TBIL,"[…], time 7 day",0.2 mg/dL
same,TC,"[…], time 7 day",70.2 mg/dL
same,TG,"[…], time 7 day",122 mg/dL
same,TP,"[…], time 7 day",5.8 g/dL
same,gamma-GTP,"[…], time 7 day",0.6 IU/L
same,A/G,"[…], time 14 day",1.3
same,ALP,"[…], time 14 day",852.2 IU/L
same,ALT,"[…], time 14 day",37.4 IU/L
same,AST,"[…], time 14 day",62 IU/L
same,BUN,"[…], time 14 day",16.2 mg/dL
same,CRE,"[…], time 14 day",0.4 mg/dL
same,Ca,"[…], time 14 day",10.6 mg/dL
same,Cl,"[…], time 14 day",101 meq/L
same,DBIL,"[…], time 14 day",0.082 mg/dL
same,GLC,"[…], time 14 day",209.4 mg/dL
same,IP,"[…], time 14 day",7 mg/dL
same,K,"[…], time 14 day",3.8 meq/L
same,LDH,"[…], time 14 day",155 IU/L
same,Na,"[…], time 14 day",140.4 meq/L
same,PL,"[…], time 14 day",148 mg/dL
same,RALB,"[…], time 14 day",3.4 g/dL
same,TBIL,"[…], time 14 day",0.1 mg/dL
same,TC,"[…], time 14 day",74.2 mg/dL
same,TG,"[…], time 14 day",118.4 mg/dL
same,TP,"[…], time 14 day",5.9 g/dL
same,gamma-GTP,"[…], time 14 day",0.8 IU/L
same,A/G,"[…], time 28 day",1.4
same,ALP,"[…], time 28 day",622.2 IU/L
same,ALT,"[…], time 28 day",31.2 IU/L
same,AST,"[…], time 28 day",57.4 IU/L
same,BUN,"[…], time 28 day",15.2 mg/dL
same,CRE,"[…], time 28 day",0.4 mg/dL
same,Ca,"[…], time 28 day",10.4 mg/dL
same,Cl,"[…], time 28 day",102.6 meq/L
same,DBIL,"[…], time 28 day",0.08 mg/dL
same,GLC,"[…], time 28 day",207.2 mg/dL
same,IP,"[…], time 28 day",5.9 mg/dL
same,K,"[…], time 28 day",3.8 meq/L
same,LDH,"[…], time 28 day",154.6 IU/L
same,Na,"[…], time 28 day",140.8 meq/L
same,PL,"[…], time 28 day",145.6 mg/dL
same,RALB,"[…], time 28 day",3.5 g/dL
same,TBIL,"[…], time 28 day",0.1 mg/dL
same,TC,"[…], time 28 day",66.8 mg/dL
same,TG,"[…], time 28 day",124.4 mg/dL
same,TP,"[…], time 28 day",6.1 g/dL
same,gamma-GTP,"[…], time 28 day",0.8 IU/L
